{"source": "patent US20260327211A1", "about": "“MODULATORS OF A POTASSIUM CHANNEL AND OF TRPV1 CHANNEL AND USES THEREOF” (Bsense Bio Therapeutics Ltd., priority 2023, published 2026)", "key": {"hKv7.2/3": {"molecular_target": "T1, hKv7.2/3 (Homo sapiens, UniProt O43525+O43526)", "T1 construct": "host or cells: CHO", "assay": "Kv7.2/7.3 whole-cell electrophysiology in CHO cells", "format": "cell-based", "settings": "100 nM, −40 mV, N=4, read-out: Kv7.2/3 current activation", "source_text": "(§1) Extracellular (Bath) solution: The solution was composed of (in mM): NaCl, 140; KCl, 4; CaCl2, 1.8; MgCl2, 1.2; Glucose, 11; HEPES, 5.5. pH was adjusted to 7.3 with NaOH. Osmolarity was adjusted to 310 mOsm with Sucrose.\nIntracellular (Pipette) solution: Pipettes were pulled from borosilicate glass (Warner Instrument Corp, USA) with a resistance of 3-7 MΩ and were filled with internal solution composed of (in mM): KCl, 130; MgCl2, 1; K ATP, 5; EGTA, 5 (replaced by BAPTA in rat DRG neurons recordings); HEPES, 10. pH was adjusted to 7.3 with KOH. Osmolarity was adjusted to 290 mOsm with Sucrose.\nA programmable valve-linked pressurized perfusion system (AutoMate Scientific) was used for local application of compounds nearby the cell recorded in a consistent flow rate of 2-3 ml/min. Series resistance was corrected and data were sampled at 5 kHz and low pass filtered at 2.4 kHz using MultiClamp 700B amplifier with pCLAMP11 software (Molecular Devices, USA). […]\nThe current obtained at −40 mV membrane potential when test compound is injected is divided by the averaged current at −40 mV, recorded before test-compound application and following its washout, to evaluate the drug/control response."}, "hTRPV1": {"molecular_target": "T2, hTRPV1 (Homo sapiens, UniProt Q8NER1)", "T2 construct": "CDS of NM_080704.4, inserted into the multiple cloning site of pcDNA3.1(+); host or cells: CHO/hKv7.2/3", "T2 sequence (Q8NER1 whole entry)": "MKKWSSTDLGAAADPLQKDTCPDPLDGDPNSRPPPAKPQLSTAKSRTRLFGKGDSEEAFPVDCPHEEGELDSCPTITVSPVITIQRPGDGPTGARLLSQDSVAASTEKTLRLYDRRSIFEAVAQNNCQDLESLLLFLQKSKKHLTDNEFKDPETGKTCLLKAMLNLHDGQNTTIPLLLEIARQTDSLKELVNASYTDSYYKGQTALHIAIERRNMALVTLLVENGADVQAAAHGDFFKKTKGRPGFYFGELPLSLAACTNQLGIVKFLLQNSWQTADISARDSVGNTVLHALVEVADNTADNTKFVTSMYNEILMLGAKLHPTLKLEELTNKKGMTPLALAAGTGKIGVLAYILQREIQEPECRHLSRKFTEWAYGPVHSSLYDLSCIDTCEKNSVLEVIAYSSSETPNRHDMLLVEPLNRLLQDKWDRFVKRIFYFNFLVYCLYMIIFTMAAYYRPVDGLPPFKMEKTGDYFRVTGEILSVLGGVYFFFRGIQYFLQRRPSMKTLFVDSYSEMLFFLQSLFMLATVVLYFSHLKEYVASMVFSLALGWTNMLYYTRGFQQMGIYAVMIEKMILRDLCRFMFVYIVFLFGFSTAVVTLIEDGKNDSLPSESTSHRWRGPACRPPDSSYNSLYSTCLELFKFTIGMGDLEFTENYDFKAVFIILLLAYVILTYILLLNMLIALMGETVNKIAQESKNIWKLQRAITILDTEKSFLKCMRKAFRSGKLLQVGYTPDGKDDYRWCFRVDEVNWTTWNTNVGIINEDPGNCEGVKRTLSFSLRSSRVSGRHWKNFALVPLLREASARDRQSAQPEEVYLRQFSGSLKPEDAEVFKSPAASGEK", "assay": "TRPV1 whole-cell electrophysiology, CHO cells expressing hTRPV1 alone", "format": "cell-based", "source_text": "as §1\nIntracellular (Pipette) solution: Pipettes were pulled from borosilicate glass (Warner Instrument Corp, USA) with a resistance of 3-7 MΩ and filled with internal solution composed of (in mM): KCl, 130; MgCl2, 1; K ATP, 5; EGTA, 5; HEPES, 10. pH was adjusted to 7.3 with KOH. Osmolarity was adjusted to 290 mOsm with Sucrose. A programmable valve-linked pressurized perfusion system was used to locally apply compounds nearby the cell recorded, in a consistent flow rate of 2-3 ml/min. Data were sampled at 5 kHz and low pass filtered at 2.4 kHz using MultiClamp 700B amplifier with pCLAMP11 software (Molecular Devices, USA).\n[…]. A 3-minute time interval was set between sequential Capsaicin injections to allow its washout and cell recovery. All compounds are injected in the vicinity of the cells using the pressurized perfusion system.\nThe drug current response, when capsaicin (co-applied with test compound) is injected following >3 minutes of pre-incubation with the test compound, is divided by the averaged control currents, obtained when capsaicin is injection alone, before compound incubation and following its washout, to evaluate the drug/control response."}, "rat DRG neurons": {"tested_on": "rat DRG neurons", "assay": "Rat DRG neurons, current-evoked action potential firing", "format": "cell-based", "source_text": "rDRGs isolation and primary cell culture: Briefly, rat DRGs from all spinal levels were carefully removed and collected in HBSS on ices, connective tissue of the epineurium surrounding the ganglion was removed and cells were dissociated using Collagenase-II and trypsin dissociation solutions. DRGs were dissociated further, passed through glass Pasteur pipettes to obtain single cells. Then dissociation solution was changed to 5% FBS containing DRG neuronal culture medium and plated onto ECL coated 12 mm cover glass.\nAdditional rDRGs experiments were performed using Lonza primary neonatal rat (Sprague Dawley neonatal; P2,3) DRG neurons (R-DRG-505, Lonza) plated and cultured according to the manufacturer.\nElectrophysiology: Cells were used for electrophysiological recording at least 48 hours following rDRG isolation or at least 5 days following cryopreserved rDRG thawing. Round small neurons (20-40 μm in diameter) were selected for electrophysiology recordings, to select for small nociceptive neurons that propagate pain sensation in vivo and that are expressing both Kv7.2/3 and TRPV1 targets. Membrane excitability was monitored using current clamp configuration of the whole-cell patch-clamp technique. Positive current steps of different amplitude were injected (400 ms) to induce spikes trains before and following compound application."}, "hERG": {"molecular_target": "hERG (Homo sapiens, UniProt Q12809)", "sequence (Q12809 whole entry)": "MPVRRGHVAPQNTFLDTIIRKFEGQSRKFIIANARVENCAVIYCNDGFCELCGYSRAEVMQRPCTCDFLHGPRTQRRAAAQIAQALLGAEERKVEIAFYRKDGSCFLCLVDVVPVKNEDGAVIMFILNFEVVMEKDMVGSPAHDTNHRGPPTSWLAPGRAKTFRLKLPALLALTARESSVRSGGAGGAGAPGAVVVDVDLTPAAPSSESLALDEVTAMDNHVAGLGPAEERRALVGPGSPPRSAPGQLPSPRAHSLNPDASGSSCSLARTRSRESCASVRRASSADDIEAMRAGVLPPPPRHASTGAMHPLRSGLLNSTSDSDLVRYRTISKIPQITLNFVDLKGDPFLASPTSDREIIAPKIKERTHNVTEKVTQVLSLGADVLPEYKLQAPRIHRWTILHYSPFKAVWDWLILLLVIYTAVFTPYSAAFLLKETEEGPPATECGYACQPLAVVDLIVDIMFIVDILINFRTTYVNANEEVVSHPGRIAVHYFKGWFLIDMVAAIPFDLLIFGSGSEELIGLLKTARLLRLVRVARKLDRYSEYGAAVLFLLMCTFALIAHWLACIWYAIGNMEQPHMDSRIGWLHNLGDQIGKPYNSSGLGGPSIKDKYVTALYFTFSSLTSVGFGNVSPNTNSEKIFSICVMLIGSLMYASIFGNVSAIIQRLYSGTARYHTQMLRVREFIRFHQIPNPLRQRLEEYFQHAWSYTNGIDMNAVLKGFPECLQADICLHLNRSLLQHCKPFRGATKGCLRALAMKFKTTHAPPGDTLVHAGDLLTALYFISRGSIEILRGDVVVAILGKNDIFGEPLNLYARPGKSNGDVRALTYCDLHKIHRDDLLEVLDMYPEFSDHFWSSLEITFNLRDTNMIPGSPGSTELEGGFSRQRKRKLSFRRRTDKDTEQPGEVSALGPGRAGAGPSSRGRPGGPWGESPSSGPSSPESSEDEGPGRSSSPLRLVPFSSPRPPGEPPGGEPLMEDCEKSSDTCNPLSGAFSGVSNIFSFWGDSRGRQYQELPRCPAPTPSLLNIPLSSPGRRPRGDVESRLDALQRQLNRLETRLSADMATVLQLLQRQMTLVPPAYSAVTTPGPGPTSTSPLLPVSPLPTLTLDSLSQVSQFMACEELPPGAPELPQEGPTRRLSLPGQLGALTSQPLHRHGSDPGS", "assay": "Functional selectivity panel, hERG", "format": "biochemical", "set-up": "Eurofins DiscoverX functional panel cells", "settings": "up to 10 micromolar", "protocol": "(§2) A broad panel of 78 recombinant targets was tested for pharmacologic activity in vitro through a variety of functional assays (Eurofins DiscoverX, USA), as part of the National Institute of Neurological Disorders and Stroke (NINDS) Preclinical Screening Platform for Pain (PSPP) program. The biological targets for the in vitro profiling have been selected based on avoiding opioid receptor stimulation and targets known to be associated with adverse events or targeted by drugs of abuse. […] For each test, a reference compound was evaluated at the target of interest as a positive control."}, "Nav1.5": {"molecular_target": "T3, Nav1.5 (Homo sapiens, UniProt Q14524)", "T3 construct": "Eurofins DiscoverX functional panel cells", "T3 sequence (Q14524 whole entry)": "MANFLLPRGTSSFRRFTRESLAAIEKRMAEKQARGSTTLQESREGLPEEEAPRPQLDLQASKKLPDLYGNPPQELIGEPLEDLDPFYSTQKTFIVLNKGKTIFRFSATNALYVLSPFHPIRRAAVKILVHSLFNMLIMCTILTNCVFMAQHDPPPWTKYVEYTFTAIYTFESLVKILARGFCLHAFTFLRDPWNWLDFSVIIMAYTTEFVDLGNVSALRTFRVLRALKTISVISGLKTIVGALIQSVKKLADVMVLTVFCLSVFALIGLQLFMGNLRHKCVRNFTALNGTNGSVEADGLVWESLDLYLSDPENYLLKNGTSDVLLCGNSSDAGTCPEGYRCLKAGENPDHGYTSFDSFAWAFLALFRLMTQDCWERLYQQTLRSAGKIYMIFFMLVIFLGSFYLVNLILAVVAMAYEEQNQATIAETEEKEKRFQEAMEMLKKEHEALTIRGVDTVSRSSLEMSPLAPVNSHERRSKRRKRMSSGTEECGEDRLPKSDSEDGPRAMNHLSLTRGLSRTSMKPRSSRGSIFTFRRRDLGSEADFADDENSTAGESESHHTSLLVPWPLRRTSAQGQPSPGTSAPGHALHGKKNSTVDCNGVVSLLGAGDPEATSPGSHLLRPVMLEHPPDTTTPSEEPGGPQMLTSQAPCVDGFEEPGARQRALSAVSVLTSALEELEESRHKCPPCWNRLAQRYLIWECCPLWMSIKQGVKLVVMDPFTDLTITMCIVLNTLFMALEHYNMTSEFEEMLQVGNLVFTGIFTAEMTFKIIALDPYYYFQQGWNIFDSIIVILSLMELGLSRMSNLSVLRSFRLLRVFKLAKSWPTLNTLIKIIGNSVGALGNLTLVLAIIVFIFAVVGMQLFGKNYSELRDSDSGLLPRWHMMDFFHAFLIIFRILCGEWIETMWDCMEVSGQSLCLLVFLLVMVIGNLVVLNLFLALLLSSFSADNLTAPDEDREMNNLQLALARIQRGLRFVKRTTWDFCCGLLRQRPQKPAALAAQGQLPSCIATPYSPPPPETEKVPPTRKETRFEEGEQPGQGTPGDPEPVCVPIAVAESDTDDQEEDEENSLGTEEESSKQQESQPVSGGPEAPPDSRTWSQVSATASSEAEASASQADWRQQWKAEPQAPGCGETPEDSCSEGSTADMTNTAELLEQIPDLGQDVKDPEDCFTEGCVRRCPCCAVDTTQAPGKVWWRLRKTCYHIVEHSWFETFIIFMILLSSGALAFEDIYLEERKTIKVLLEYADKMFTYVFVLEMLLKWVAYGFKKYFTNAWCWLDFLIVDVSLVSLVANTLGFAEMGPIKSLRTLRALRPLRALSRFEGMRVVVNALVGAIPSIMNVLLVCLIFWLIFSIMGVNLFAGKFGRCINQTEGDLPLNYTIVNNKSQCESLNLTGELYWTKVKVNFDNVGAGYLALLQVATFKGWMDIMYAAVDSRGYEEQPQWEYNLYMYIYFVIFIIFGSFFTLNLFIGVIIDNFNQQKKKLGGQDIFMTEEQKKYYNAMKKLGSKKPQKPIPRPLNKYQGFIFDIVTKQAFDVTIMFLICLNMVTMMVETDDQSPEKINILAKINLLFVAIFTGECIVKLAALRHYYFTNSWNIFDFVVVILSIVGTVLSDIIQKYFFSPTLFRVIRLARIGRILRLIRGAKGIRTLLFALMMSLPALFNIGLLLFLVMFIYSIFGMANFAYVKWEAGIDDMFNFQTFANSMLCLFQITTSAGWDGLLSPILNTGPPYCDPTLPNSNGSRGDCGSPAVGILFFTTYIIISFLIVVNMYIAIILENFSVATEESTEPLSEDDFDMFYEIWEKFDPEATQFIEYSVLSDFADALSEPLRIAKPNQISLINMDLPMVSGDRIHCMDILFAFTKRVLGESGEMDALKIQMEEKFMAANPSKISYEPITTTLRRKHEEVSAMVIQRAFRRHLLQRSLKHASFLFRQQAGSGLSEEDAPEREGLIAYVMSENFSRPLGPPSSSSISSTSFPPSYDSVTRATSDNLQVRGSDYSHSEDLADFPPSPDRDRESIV", "assay": "Functional selectivity panel, Nav1.5", "format": "biochemical", "settings": "up to 10 micromolar", "protocol": "as §2"}, "Bradykynin B1-2": {"tested_on": "Bradykynin B1-2", "assay": "Functional screening panel, Bradykynin B1-2", "format": "biochemical", "settings": "up to 10 micromolar", "protocol": "as §2"}, "rats": {"tested_on": "rats", "assay": "Chronic 5-day BID exposure", "format": "in vivo, rat", "settings": "up to 300 mg/kg BID, oral"}, "OAT3": {"molecular_target": "OAT3 (Homo sapiens, UniProt Q8TCC7)", "sequence (Q8TCC7 whole entry)": "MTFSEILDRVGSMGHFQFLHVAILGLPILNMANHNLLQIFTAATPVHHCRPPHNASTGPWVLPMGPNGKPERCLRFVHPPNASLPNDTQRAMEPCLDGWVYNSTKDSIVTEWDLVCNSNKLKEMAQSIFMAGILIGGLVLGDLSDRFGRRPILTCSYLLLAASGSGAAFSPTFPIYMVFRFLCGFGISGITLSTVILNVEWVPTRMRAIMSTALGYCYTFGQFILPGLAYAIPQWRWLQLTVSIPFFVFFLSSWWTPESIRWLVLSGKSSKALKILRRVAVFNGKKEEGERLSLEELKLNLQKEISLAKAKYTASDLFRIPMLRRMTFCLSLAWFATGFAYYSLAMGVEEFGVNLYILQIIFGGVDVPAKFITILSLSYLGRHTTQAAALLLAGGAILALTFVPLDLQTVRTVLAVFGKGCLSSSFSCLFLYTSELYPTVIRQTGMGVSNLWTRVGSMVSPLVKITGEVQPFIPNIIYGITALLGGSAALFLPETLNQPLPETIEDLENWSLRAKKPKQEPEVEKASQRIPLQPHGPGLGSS", "assay": "Transporter substrate, OAT3", "format": "in vitro ADME", "settings": "role: substrate", "protocol": "Additionally, compound 760 was tested for its capability to act as a transporter substrate for various transporters, and was not found to be a transporter substrate for any of the tested transporters."}, "5-HT1B": {"molecular_target": "T4, 5-HT1B (Homo sapiens, UniProt P28222)", "T4 construct": "Eurofins DiscoverX, USA", "T4 sequence (P28222 whole entry)": "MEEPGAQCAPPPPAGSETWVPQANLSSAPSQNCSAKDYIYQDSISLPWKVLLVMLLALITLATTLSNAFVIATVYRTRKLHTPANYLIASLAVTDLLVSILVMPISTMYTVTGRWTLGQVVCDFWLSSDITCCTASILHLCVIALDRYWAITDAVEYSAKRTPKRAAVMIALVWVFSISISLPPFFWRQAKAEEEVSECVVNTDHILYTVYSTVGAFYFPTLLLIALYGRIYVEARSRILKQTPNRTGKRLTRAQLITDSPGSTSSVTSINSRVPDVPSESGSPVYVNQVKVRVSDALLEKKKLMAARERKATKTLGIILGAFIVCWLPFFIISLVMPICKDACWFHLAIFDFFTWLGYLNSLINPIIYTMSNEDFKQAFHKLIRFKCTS", "assay": "Functional selectivity panel, 5-HT1B", "format": "biochemical", "protocol": "as §2"}}}
{"smiles": "O=C(Cc1cc(-n2cc(Cl)c3cc(Cl)cc(Cl)c32)ccc1F)NCCO", "note": "[Compound 627]", "values": [{"measurement": "activation at 0.1 µM", "setting": "hKv7.2/3", "result": "24.4 ± 10.4", "unit": "%"}, {"measurement": "IC50", "setting": "hTRPV1", "result": 2000, "unit": "nM"}, {"measurement": "TRPV1 inhibition, hTRPV1 alone", "setting": "hTRPV1; 1.3 μM", "result": "partial TRPV1 inhibition"}]}
{"smiles": "Cc1cn(-c2ccc(F)c(CC(=O)NCC(C)(C)O)c2)c2c(Cl)cc(Cl)cc12", "note": "[Compound 421-6]", "values": [{"measurement": "Inhibition of current induced AP response", "setting": "rat DRG neurons; 100 nM", "result": "10.1±3.4", "unit": "%"}, {"measurement": "Inhibition of current induced AP response", "setting": "rat DRG neurons; 500 nM", "result": "51.2±8.4", "unit": "%"}, {"measurement": "Inhibition of AP response to current", "setting": "rat DRG neurons; 2 μM", "result": "77.7±5.6", "unit": "%"}, {"measurement": "IC50", "setting": "rat DRG neurons; read-out: IC50 for inhibition of current induced AP responses", "result": "~500", "unit": "nM"}]}
{"smiles": "O=C(Cc1nccc(-n2cc(Cl)c3cc(Cl)cc(Cl)c32)n1)NC1COCC1O", "note": "(stereo not shown) [Compound 760]", "values": [{"measurement": "Effect on hERG", "setting": "hERG", "result": "no effect"}, {"measurement": "Effect on Nav1.5", "setting": "Nav1.5", "result": "no effect"}, {"measurement": "Effect on Bradykynin B1-2", "setting": "Bradykynin B1-2", "result": "no effect"}, {"measurement": "Gross safety, 5-day BID", "setting": "rats", "result": "did not raise any gross safety concerns"}, {"measurement": "OAT3 substrate", "setting": "OAT3", "result": "not a transporter substrate"}]}
{"smiles": "O=C(Cc1cncc(-n2cc(Cl)c3cc(Cl)cc(Cl)c32)c1)N[C@@H]1COC[C@H]1O", "note": "[Compound 661]", "values": [{"measurement": "IC50", "setting": "5-HT1B", "result": 10000, "unit": "nM"}]}
